“Also recorded” adds a separate entry of the source.
Tests used:
[1] = biological target: T1, TFPI (Homo sapiens, UniProt P10646); assay: dPT assay, inhibition of TFPI activity in Hem-A plasma, TFPI preincubated with NASP; assay type: biochemical; conditions: for TFPI-neutralizing activity: FIGS. 4-6 / data not shown; for clotting time, dPT: Hem-A + TFPI, plasma alone 44, + TFPI 151 seconds
T1 construct: purchased American Diagnostica (Stamford, Conn.)
T1 sequence (P10646 29-304): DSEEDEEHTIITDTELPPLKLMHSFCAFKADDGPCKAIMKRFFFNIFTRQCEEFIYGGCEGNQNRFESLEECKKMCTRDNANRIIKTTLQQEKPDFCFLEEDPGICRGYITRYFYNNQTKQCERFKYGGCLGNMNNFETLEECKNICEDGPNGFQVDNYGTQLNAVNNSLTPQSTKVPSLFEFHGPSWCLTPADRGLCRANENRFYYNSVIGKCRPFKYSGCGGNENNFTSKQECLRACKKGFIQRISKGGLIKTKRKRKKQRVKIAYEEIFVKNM
Procedure: (§1) The dPT assay used was a modified standard clinical PT assay (Nordfang et al. (1991) Thromb Haemost 66:464-467; Welsch et al. (1991) Thrombosis Research 64: 213-222). SIMPLASTIN EXCEL thromboplastin reagent (Organon Teknika) was reconstituted with the manufacturer's diluent and further diluted 1:100 in 0.9% saline. The thromboplastin reagent, 25 mM CaCl2, and plasma samples were pre-warmed to 37° C. before initiating the assay. 100 μl of thawed plasma was aliquoted into microcentrifuge tubes. […] 100 μl of the diluted thromboplastin reagent and 100 μl of 25 mM CaCl2 were added to fibrin cups (Fisher) prewarmed to 37° C. 100 μl of plasma (normal or hemophilic) containing the test agent or saline control was added to the fibrin cups containing the thromboplastin reagent and CaCl2 to initiate clotting. The time for plasma clotting was measured with a BBL FIBROSYSTEM fibrometer.
(§2) Inhibition of TFPI activity by NASPs was assessed in dPT clotting assays with normal or hemophilic plasma and added recombinant TFPI. Diluted recombinant TFPI was preincubated with NASPs for 5 minutes at room temperature before plasma was added. After addition of plasma, the mixture was incubated for an additional 25 minutes followed by dPT initiation.

[2] = system: Hem-A plasma; assay: dPT assay, Hem-A plasma in absence of exogenous TFPI; assay type: biochemical, human; conditions: dPT
Procedure: as §1
The ability of NASPs to accelerate clotting of factor-deficient plasma in the absence of TFPI supplementation was also tested in dPT assays. A procoagulant response, if observed, may be related to neutralization of endogenous TFPI activity, which is present in human plasma at approximately 100 ng/ml (Nordfang et al., supra), largely associated with lipoprotein or platelets (Broze et al. (1992) Semin. Hematol. 29:159-169; Broze et al. (2003) J. Thromb. Haemost. 1:1671-1675).
The ability of NASPs to accelerate clotting of Hem-A plasma in the absence of exogenous TFPI was tested. Fucoidan or PPS were titrated into Hem A plasma and dPT assays were performed. Additionally, the dose-response to factor VIIa was analyzed as a positive control for amplifying extrinsic pathway activation.

[3] = system: Hem-A plasma; assay: dPT assay, anti-coagulant activity of NASPs in Hem-A plasma; assay type: biochemical, human; conditions: for clotting time, dPT: Hem-A plasma without NASP 41.5 seconds; for inherent anticoagulant activity: concentrations up to 5000 nM; for prolongation of clotting time: concentrations>5000 nM
Procedure: as §1
Test compounds were diluted to 100 μM, 10 μM, 2 μM and 200 nM. For each test compound, 12.5 μl of a diluted solution containing the test compound was added to 237.5 μl of Hem-A plasma and incubated at room temperature. 100 μl of plasma containing the test compound was removed for dPT assays of plasma clotting time as described in Example 2.

[4] = biological target: T1, TFPI; assay: dPT assay, inhibition of TFPI activity in Hem-B plasma, TFPI preincubated with NASP; assay type: biochemical; conditions: for clotting time, dPT: Hem-B + TFPI, plasma alone 46, + TFPI 101 seconds
Procedure: as §1, §2
The acceleration of plasma clotting by the NASPs in the presence of TFPI was also tested in Hem-B and normal plasma.

[5] = system: Hem-A plasma; assay: dPT assay, TFPI titrated into FVIII deficient (Hem-A) plasma; assay type: biochemical, human
Procedure: as §1
A 100 μg/mL TFPI stock solution (American Diagnostica, Stamford, Conn.) was sequentially diluted in saline to generate TFPI solutions at the following concentrations: 20, 15, 10, 6, and 2 μg/mL. 5 μl of these TFPI dilutions were mixed with 95 μl of FVIII deficient plasma and incubated at room temperature for 30 minutes. dPT assays were performed as follows: SIMPLASTIN thromboplastin was diluted 1:100 in saline and prewarmed to 37° C. 25 mM CaCl2 and 100 μl of test plasma containing TFPI was prewarmed to 37° C. 100 μl SIMPLASTIN thromboplastin and 100 μl of CaCl2 were mixed and clotting time was measured using a BBL fibrometer.

[6] = biological target: T1, TFPI; assay: dPT assay, inhibition of TFPI activity in Hem-A plasma without preincubation; assay type: biochemical; conditions: for clotting time, dPT: Hem-A + TFPI, no preincubation, HemA + TFPI 183, alone 45 seconds
Procedure: as §1
Experiments were repeated without a preincubation of the sulfated polysaccharides with TFPI prior to exposure to plasma. To extend the stringency of the test for NASP inhibition of TFPI activity, TFPI was added to the plasma before the NASP was added.

[7] = system: Hem-A plasma containing 1.25% FACT plasma; assay: aPTT assay, NASPs in 1.25% FACT diluted in Hem-A plasma; assay type: biochemical, human
Procedure: Activated Partial Thromboplastin Time (aPTT) Assay The aPTT assay was performed as described previously with modifications (PDR Staff Physicians' Desk Reference. 2004, Anderson Lo, Barrowcliffe, T. W., Holmer, E., Johnson, E. A., Sims, G. E. C. Thromb. Res. 1976; 9:575-580). 25 mM CaCl2 and fibrin cups (Fisher) were pre-warmed to 37° C. 0.1 ml of thawed human plasma (normal or hemophilic) was added to warmed test tubes. 5 μl of saline (e.g. Sigma) or 5 μl of test agent (e.g., NASP) dissolved in saline was incubated with 95 μl of plasma for 30 minutes at room temperature. APTT reagent (e.g. Organon Teknika) was reconstituted in 3 ml distilled water and 0.1 ml of the reconstituted solution containing the APTT reagent was added to each test tube. 0.2 ml of plasma containing the test agent or saline control and aPTT reagent were transferred from test tubes to pre-warmed fibrin cups and incubated for 2-3 minutes. 0.1 ml of pre-warmed 25 mM CaCl2 was added to initiate clotting, and the time for plasma clotting was measured with a BBL FIBROSYSTEM fibrometer.
The effect of NASPs on the clotting time of plasma was determined as follows: 5 μl of a NASP was added to 95 μl of 1.25% FACT diluted in human Hem-A plasma and incubated at room temperature for 30 minutes. aPTT assays were performed to determine plasma clotting time as described in Example 1.

Row | Substance | TFPI-neutralizing activity ([1]; dPT) | acceleration of hemophilic plasma clotting in the absence of TFPI addition [2] | clotting time, dPT ([3]; 10 nM) | clotting time, dPT ([3]; 100 nM) | clotting time, dPT ([3]; 500 nM) | clotting time, dPT ([3]; 5000 nM) | inherent anticoagulant activity [3] | prolongation of clotting time ([3]; dPT) | clotting time, aPTT ([7]; 0.8 nM) | clotting time, aPTT ([7]; 4 nM) | clotting time, aPTT ([7]; 20 nM) | clotting time, aPTT ([7]; 100 nM) | clotting time, aPTT ([7]; 500 nM) | other results
1 | De-N-Sulfated-Heparin [De-N-SH] | did not exhibit any TFPI-neutralizing activity | failed to accelerate clotting times | 40 s | 38 s | 38 s | 41 s | failed to show inherent anticoagulant activity | little or no prolongation of clotting time |  |  |  |  |  | 
2 | N-Acetyl-de-O-Sulfated-Heparin [NA-de-O-SH] | did not exhibit any TFPI-neutralizing activity | failed to accelerate clotting times | 40 s | 40 s | 40 s | 40 s | failed to show inherent anticoagulant activity | little or no prolongation of clotting time |  |  |  |  |  | 
3 | TFPI: human recombinant TFPI from American Diagnostica |  |  |  |  |  |  |  |  |  |  |  |  |  | Clotting time of Hem-B + TFPI ([4]; no NASP, Hem-B alone 46 seconds): Clotting time of Hem-B + TFPI: 101 seconds.; Clotting time ([5]; TFPI 0.1 μg/mL in plasma): 60 s; Clotting time ([5]; TFPI 0.3 μg/mL in plasma): 94 s; Clotting time ([5]; TFPI 0.5 μg/mL in plasma): 98 s; Clotting time ([5]; TFPI 0.75 μg/mL in plasma): 173 s; Clotting time ([5]; TFPI 1 μg/mL in plasma): >200 s; clotting time of plasma with TFPI ([1]; TFPI approximately 0.5 μg/ml, from approximately 40 seconds, depending on experiment and source of plasma): 100 to 200 s; Clotting time of Hem-A plasma + TFPI ([1]; no NASP, TFPI approximately 0.5 μg/ml, plasma alone 44 seconds): Clotting time of Hem-A plasma + TFPI is 151 seconds.; Clotting time HemA + TFPI ([6]; no NASP, Hem-A alone 45 seconds): HemA + TFPI: 183 seconds
4 | N-Acetyl-Heparin [NAH] | only weak TFPI-neutralizing activity | had no activity; also recorded: did not accelerate hemophilic plasma clotting times | 38 s | 37 s | 36 s | 38 s |  | little or no prolongation of clotting time | 70 s | 69 s | 67 s | 74 s | 85 s | clotting time, dPT ([4]; 0.16 nM): 102 s; clotting time, dPT ([4]; 0.8 nM): 101 s; clotting time, dPT ([4]; 4 nM): 106 s; clotting time, dPT ([4]; 20 nM): 106 s; clotting time, dPT ([4]; 100 nM): 94 s; clotting time, dPT ([4]; 500 nM): 68 s; clotting time, dPT ([1]; 0.16 nM, preincubation): 144 s; clotting time, dPT ([1]; 0.8 nM, preincubation): 158 s; clotting time, dPT ([1]; 4 nM, preincubation): 160 s; clotting time, dPT ([1]; 20 nM, preincubation): 141 s; clotting time, dPT ([1]; 100 nM, preincubation): 99 s; clotting time, dPT ([1]; 500 nM, preincubation): 84 s; concentration that accelerates (shortens) clotting of Hem-A plasma containing TFPI ([1]; dPT, preincubation): approximately 100 nM; concentration producing approximately 50% prolongation in clotting time, fold higher than for heparin ([7]; APTT, Hem-A plasma): > 500 fold; clotting time, dPT ([6]; 0.8 nM): 165 s; clotting time, dPT ([6]; 4 nM): 180 s; clotting time, dPT ([6]; 20 nM): 184 s; clotting time, dPT ([6]; 100 nM): 125 s; clotting time, dPT ([6]; 500 nM): 89 s
5 | Sodium Heparin |  |  | 40 s | 92 s | 400 s |  |  |  | 70 s | 70 s | 200 s | Not clotted | Not clotted | effect on clotting time of Hem-A plasma containing TFPI ([1]; dPT, not shown): only prolonged clotting times; anticoagulant activity ([3]; dPT, concentrations exceeding 10 nM): markedly anticoagulant
6 | De-N-Sulfated-Acetylated-Heparin [De-N—S-AH] | did not exhibit any TFPI-neutralizing activity | failed to accelerate clotting times | 39 s | 37 s | 40 s | 55 s | failed to show inherent anticoagulant activity |  |  |  |  |  |  | 

From patent US8771973B2, “Methods for treating bleeding disorders using sulfated polysaccharides” (Baxter Healthcare S.A., priority 2004, dated 2014)
